Experimental data taken from patent US20230127046A1, “G9a INHIBITOR” (RIKEN, priority 2019, published 2023).

Columns and labels:
[1] = molecular target: T1, recombinant human G9a protein (Homo sapiens, UniProt Q96KQ7); assay: G9a inhibitory activity test (ALPHA); assay type: biochemical; settings: read-out: Inhibitory activity (G9a IC50)
T1 construct: purchased BPS Bioscience Inc. #51001
T1 sequence (Q96KQ7 785-1210 limits assumed): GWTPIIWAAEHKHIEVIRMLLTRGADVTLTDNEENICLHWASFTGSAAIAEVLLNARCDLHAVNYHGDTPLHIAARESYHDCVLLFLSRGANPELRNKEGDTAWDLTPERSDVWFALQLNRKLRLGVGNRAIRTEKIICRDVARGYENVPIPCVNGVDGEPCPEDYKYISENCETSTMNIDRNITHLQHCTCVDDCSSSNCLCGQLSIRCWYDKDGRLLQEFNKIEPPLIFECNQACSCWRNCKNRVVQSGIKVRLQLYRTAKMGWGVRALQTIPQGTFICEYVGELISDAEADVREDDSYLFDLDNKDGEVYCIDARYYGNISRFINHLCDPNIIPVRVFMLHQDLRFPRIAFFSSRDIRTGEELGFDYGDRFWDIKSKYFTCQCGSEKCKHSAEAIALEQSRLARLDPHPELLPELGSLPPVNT
How it was run: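 Human G9a (0.05 to 0.1 nM) in Tris pH 9.0 buffer preincubated with compound 10 min, then biotinylated histone H3 (1-21) peptide and SAM mixed 1:1 from 500 nM and 150 μM solutions, 1 h at room temperature. H3K9me2 detected by AlphaLISA acceptor/streptavidin donor beads; IC50 from percent inhibition relative to no-compound and no-enzyme controls.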

[2] = system: intracellular histone H3K9 dimethylation level in human lung cancer cell line NCI-H460; assay: Histone H3K9 dimethylation inhibitory activity test (Western blotting); assay type: cell-based; settings: NCI-H460 cells, 72 hours
Description: The inhibitory activity of each compound against G9a was evaluated by adding the compound to a human lung cancer cell line NCI-H460, and detecting change in intracellular histone H3K9 dimethylation level by Western blotting. The NCI-H460 cells were cultured in a DMEM medium (FUJIFILM Wako Pure Chemical Corp., 044-29765) containing 10% fetal bovine serum and 4 mM glutamine. The cultured cells were washed with PBS and then detached with trypsin/EDTA, and the cell suspension was adjusted to 2.5×10^4 cells/mL. The cell suspension was inoculated at 500 μL/well to a 24-well microplate (Thermo Fisher Scientific, Inc., 142475) and cultured overnight under conditions of 37° C. and 5% CO2. On the next day, the test compound (solution in DMSO) was added at 0.5 µL/well and reacted for 72 hours under conditions of 37° C. and 5% CO2. DMSO was added at 0.5 μL/well to control wells (final DMSO concentration: 0.1%). The medium was removed, and the cells were washed with PBS. Then, a 2×SDS-PAGE sample buffer (100 mM Tris-HCl (pH 6.8), 4% sodium lauryl sulfate, 2% 2-mercaptoethanol, 20% glycerol, 0.005% bromophenol blue) was added at 50 μL/well to prepare a sample. The recovered sample was heated at 95 to 100° C. for 10 minutes, and protein was separated by polyacrylamide gel electrophoresis (SDS-PAGE). Subsequently, the separated protein was transferred to a polyvinylidene fluoride (PVDF) membrane by semi-dry blotting. The PVDF membrane was dipped in 3% skimmed milk (dissolved in PBS containing 0.05% Tween 20 (PBST)), blocked at room temperature for 30 to 60 minutes, then dipped in an anti-dimethylated histone H3K9 antibody (Abcam plc, ab1220) diluted 1000-fold with 3% skimmed milk, and reacted overnight at 4° C. On the next day, the PVDF membrane was washed three times with PBST, then dipped in a HRP (horseradish peroxidase)-labeled anti-mouse IgG antibody diluted 10000-fold with skimmed milk, and reacted at room temperature for 1 hour. The PVDF membrane was washed three times with PBST, then dipped in chemiluminescent substrate solution Immobilon Western Chemiluminescent HRP Substrate (Merck Millipore, WBKLS0500), incubated at room temperature for 5 minutes, and photographed with Lumino Image Analyzer (GE Healthcare Japan Corp., ImageQuant LAS4000).
Then, the antibody was stripped from the PVDF membrane using re-probe reagent EzReprobe (ATTO Corp., WSE-7240), and trimethylated histone H3K9 and histone H3 were detected by the same procedures as above. An anti-trimethyl histone H3K9 antibody (39161, diluted 1000-fold) from Active Motif, Inc. and an anti-histone H3 antibody (ab1791, diluted 2000-fold) from Abcam plc were used in the detection. The band of each protein was quantified from the taken image using image processing software ImageJ (NIH). The ratios of dimethylated histone H3K9 and trimethylated histone H3K9 to the histone H3 protein were calculated with the numeric value of a compound-unsupplemented sample defined as 100%. A compound concentration at which the ratio of dimethylated histone H3K9 was 50% was calculated as a 50% inhibition concentration (IC50 value) using data analysis software Origin (LightStone Corp.).

[3] = system: human lung cancer cell line NCI-H460; assay: Colony formation inhibition test; assay type: cell-based; settings: 288 h, NCI-H460 cells, culture for 12 days, read-out: Inhibitory activity (colony formation GI50)
Description: Each compound was evaluated for its colony formation inhibitory activity against a human lung cancer cell line NCI-H460. The NCI-H460 cells were cultured in a DMEM medium (FUJIFILM Wako Pure Chemical Corp., 044-29765) containing 10% fetal bovine serum and 4 mM glutamine. The cultured cells were washed with PBS, then detached with trypsin/EDTA, and adjusted to 2×10^3 cells/mL to prepare a cell suspension. The cell suspension was inoculated at 1 mL/well to a 12-well microplate (Corning Inc., 3513), and the test compound (DMSO solution) was added at 1 μL/well, followed by culture for 12 days under conditions of 37° C. and 5% CO2. DMSO was added at 1 μL/well to control wells with a final DMSO concentration set to 0.1%. The medium was discarded every day or every two days, and a fresh medium was added at 1 mL/well. The test compound or DMSO was added at 1 μL/well. The proportion of a colony of each well was measured using a high-speed cell imaging system (Tomy Digital Biology Co., Ltd., Celigo). The ratio of the colony in each compound-supplemented group was determined with the ratio of the colony formed in a test compound solution-unsupplemented well defined as 1. A compound concentration necessary for suppressing the rate of colony formation by 50% of the control (GI50) was calculated using data analysis software Origin (LightStone Crop.).

Compound	IC50 [1] [nM]	IC50 [2] [nM]	GI50 [3] [nM]
COc1ccc(NC(=O)[C@H](CCC2CC2)NC(=O)c2ccc(Nc3cc(C)nc(C)c3)cc2)cn1 [Example 6-89]	< 50	50 to 500	< 500
CCCCC(NC(=O)c1ccc(N2CCN(C)CC2)cc1Cl)C(=O)Nc1ccc(OC2CCN(C)CC2)nc1 (stereo not drawn) [Example 11-4]	≥ 200	≥ 500	≥ 1000
CCCCC(NC(=O)Cc1ccccc1)C(=O)Nc1ccc(OC2CCN(C)CC2)nc1 (stereo not drawn) [Example 12-2]	≥ 200	50 to 500	≥ 1000
CCCC[C@H](NC(=O)c1[nH]c2c(c1C)C(=O)CC(C)(C)C2)C(=O)NCc1ccc(N2CCN(C)CC2)cc1 [Example 22-2]	50 to 200	< 50	500 to 1000
CCCC[C@H](NC(=O)c1[nH]c2c(c1C)C(=O)CC(C)(C)C2)c1nc2ccc(OC3CCNCC3)cc2[nH]1 [Example 35-1, (S)-3,6,6-trimethyl-4-oxo-N-(1-(6-(piperidin-4-yloxy)-1H-benzo[d]imidazol-2-yl)pentyl)-4,5,6,7-tetrahydro-1H-indole-2-carboxamide]	50 to 200	≥ 500	≥ 1000
CCCC[C@H](NC(=O)c1[nH]c2c(c1C)C(=O)CC(C)(C)C2)c1nc2ccc(OCC3CCNCC3)cc2[nH]1 [Example 35-2]	< 50	≥ 500	≥ 1000
